Measured values: patent publication US8211893B2, “Protein kinase C zeta inhibition to treat diabetic retinopathy” (The Penn State Research Foundation, priority 2006, dated 2012)
Entries after “also recorded” stand apart in the source; their conditions may differ. Each block holds one compound with its values, some of them ahead of it. No end group written: not given here. *: point of attachment. Myristoyl = CCCCCCCCCCCCCC(=O)*

How the values were obtained:
[1] = test system: bovine retinal endothelial cells (BREC); assay: In vitro permeability assay, VEGF stimulated 70 kDa RITC-dextran flux across BREC monolayer on transwell filters; type: cell-based; conditions: for effect on VEGF stimulated endothelial permeability to 70 kDa RITC-dextran: peptide inhibitor 50 nM
Experimental: Endothelial cells are grown to confluence on transwell filters. After the cells have grown to confluence, an additional 2 to 4 days is necessary to allow formation of a tight barrier. This may vary depending on the cell preparation.
Solute flux is measured by applying 10 micromolar or 20 micromolar RITC-dextran or FITC-BSA to the apical chamber of inserts with a confluent endothelial cell monolayer. The specific experiment may dictate when to perturb the system with, for example, a PKC inhibitor, relative to the time of measuring flux. Remember to consider the time for the perturbation to effect transport rates, for example, time for synthesis and assembly or disassembly of the junctional complex.
One half-hour after addition of fluorescent solute, 50 microliter samples are taken from the basolateral chamber. This is continued on the half-hour for up to four hours. The samples are placed into the 96 well black/clear bottom plate. A sample is taken from the apical chamber at the last time point and also placed in the 96 well plate. […] Fluorescence of each aliquot is quantified on a fluorescence plate reader. We use a FluorImager 595. A blank sample with media only but no fluorescent marker should be used for background subtraction. The rate of diffusive flux (Po) is calculated by the following formula at each time point: Po=[(FA/Δt)VA]/(FLA) where Po=diffusive flux (cm/s); FA=basolateral fluorescence; FL=apical fluorescence; Δt=change in time; A=surface area of the filter (cm^2); VA=volume of the basolateral chamber (cm^3). Note that unless the volume removed from the basolateral chamber is replaced, the volume in the basolateral chamber changes for each time point calculated. The data may be reduced as a rate over the total time course of the experiment if the change remains linear. This is done by plotting the change in fluorescence accumulated in the basolateral chamber corrected for fluorescence in the apical chamber, volume and area versus time and then determining the slope of the straight line or rate of diffusive flux, Po.
The fluorescence obtained from each time point is normalized to the fluorescence in the apical chamber. Next this ratio is corrected for the volume in the bottom chamber and this corrected ratio is plotted verses time to determine the rate of fluorescent molecule accumulation by obtaining the slope. Finally, this slope is converted from minutes to seconds and divided by the area of the filter yielding the diffusive flux in cm/s.
Bovine retinal endothelial cells (BREC) are grown to confluence on transwell filters (Costar) and treated with hydrocortisone (100 nM) to induce barrier properties. PKC zeta peptide inhibitor (50 nM, Calbiochem) is applied to the cells 30 min before addition of fluorescent-labeled tracer and VEGF (50 ng/mL, R&D Systems) is applied to the cells for 15 min before addition of tracer. RITC-labeled 70 kDa dextran (Sigma) is used as a tracer for cell permeability measures and is applied to the apical chamber at 10 micromolar. Samples are drawn from the basolateral chamber over a 4 h time course and the rate of tracer accumulation is used to determine monolayer permeability, Po, in cm/s. FIG. 2 illustrates the results of the use the myristoylated peptide inhibitor of PKC zeta on endothelial permeability to 70 kDa RITC-dextran.
Bovine retinal endothelial cells (BREC) are grown to confluence on transwell filters (Costar) and treated with hydrocortisone (100 nM) to induce barrier properties. PKC zeta peptide inhibitor (PKCζ 1) of SEQ ID No. 1 (Calbiochem) is applied to the cells at concentrations of 6.25 nM, 12.5 nM, 25 nM, and 50 nM, 30 min before addition of fluorescent-labeled tracer and VEGF (50 ng/mL, R&D Systems) is applied to the cells for 15 min before addition of tracer. […]

[2] = test system: BREC cultures; assay: Invitrogen Live/Dead assay, calcein AM and ethidium homodimer-1; type: cell-based; conditions: 10 micromolar, 24 h, confluent BREC, alone or with VEGF; listed as PKC-zeta I1
Experimental: Cell viability is measured using the Invitrogen Live/Dead assay according to manufacturer's instructions. Confluent BREC cultures are treated with 10 micromolar PKC-zeta I1 for 24 h. Cell viability is measured with calcein AM incorporation and cell death is measured by ethidium homodimer-1 staining followed by fluorescence quantification on a Molecular Devices Gemini fluorescence plate reader.

[3] = test system: retinal albumin flux after VEGF treatment; assay: In vivo VEGF induced retinal permeability, Evan's blue bound albumin flux; conditions: rat, intraocular injection with VEGF 50 ng, 5 h
Text: Vascular permeability is quantified in this in vivo model by measuring albumin leakage form blood vessels into the retina. Evans blue is an acid dye of the diazo group that noncovalently binds to albumin in the blood, allowing the breakdown in blood-retinal barrier to be detected when increased vessel leakage is extravasated into the interstitial space.
Rats are used in this example and each animal is weighed and the body weight (BW) recorded for anaesthetic and dye injections. Each animal is anesthetized by intramuscular injection of 1 microliter/g BW a Ketamine/Xylazine mixture equal to […]/6.67 mg Xylazine/kg BW. […]
Both eyes are enucleated and bisected at the equator to harvest the retinas which are optionally dried thoroughly in a Speed-Vac for 5 hours. The weight of the retinas is measured with an analytical balance. […]
The obtained plasma samples are diluted 1:10000 with formamide. […] The absorbance in each well is measured at 620 and 740 nm with a plate reader. The background-subtracted absorbance (A620-A740) is calculated for each sample and the dye concentration is determined using the standard curve. […]
The PKC-zeta I1 is effective at reducing retinal albumin flux in vivo after VEGF treatment. […] Flux to albumin is measured using the albumin binding dye Evan's blue. […] Evan's blue is eluted from the retinas in formamide and read spectrophotometrically. […]

[4] = target: T1, PKC-zeta (Homo sapiens, UniProt Q05513); assay: IC50 determination for PKC-zeta; type: biochemical; conditions: read-out: half-maximal inhibitory concentration, IC50, for PKC-zeta
T1 sequence (Q05513 1-592): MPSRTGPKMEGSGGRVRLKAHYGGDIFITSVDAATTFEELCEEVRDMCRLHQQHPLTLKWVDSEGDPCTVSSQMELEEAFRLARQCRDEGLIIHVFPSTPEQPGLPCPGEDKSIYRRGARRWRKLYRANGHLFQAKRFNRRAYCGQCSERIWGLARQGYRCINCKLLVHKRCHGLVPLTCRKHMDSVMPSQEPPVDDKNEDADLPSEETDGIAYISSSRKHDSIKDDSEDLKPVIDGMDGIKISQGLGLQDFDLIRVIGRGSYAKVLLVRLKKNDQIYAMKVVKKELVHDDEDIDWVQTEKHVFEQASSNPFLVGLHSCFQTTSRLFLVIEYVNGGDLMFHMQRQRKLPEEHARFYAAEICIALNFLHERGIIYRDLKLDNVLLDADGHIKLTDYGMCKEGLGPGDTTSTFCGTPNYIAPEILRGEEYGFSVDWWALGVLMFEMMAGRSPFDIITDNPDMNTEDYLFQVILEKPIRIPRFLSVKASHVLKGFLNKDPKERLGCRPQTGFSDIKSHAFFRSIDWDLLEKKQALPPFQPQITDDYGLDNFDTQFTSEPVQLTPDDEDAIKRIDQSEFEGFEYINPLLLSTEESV
Experimental: Methods described in this example are used to determine the half-maximal inhibitory concentration, IC50, of a particular PKC zeta inhibitor. A PKC zeta inhibitor is incubated with […] in vitro by addition of the inhibitor to cultured BREC cells, followed by the addition of a labeled permeability marker, 70 kDa RITC dextran.

[5] = target: T1, PKC-zeta; assay: In vitro screen for PKC zeta inhibitors, Kinase-Glo Luminescent Kinase assay with CREBtide substrate; type: biochemical; parameters: purchased Biomol International SE-413; conditions: tested at 100 micromolar; relative to compound of formula (I)
Experimental: A screen for PKCzeta inhibitors was developed using recombinant human enzyme from Biomol International (SE-413) and CREBtide (Biomol P195) as the substrate. PKCzeta is incubated for 8 min at 30° C. in 50 microliters of buffer containing 5 mM MgCl2, 100 micromolar Na3VO4, 100 micromolar NaP2O7, 1 mM NaF. 100 micromolar PMSF, 50 mM Tris (pH 7.5), 4 micrograms of phosphatidylserine, 50 micromolar ATP, and a substrate peptide, KRREILSRRPSYR. The substrate peptide may be chemically synthesized, recombinantly produced or obtained commercially by the trade name CREBtide. Approximately 9,000 compounds from the DIVERSet collection of the ChemBridge Corporation (San Diego, Calif.) were tested at a final concentration of 100 micromolar, using the Kinase-Glo™ Luminescent Kinase assay (Promega) to measure residual ATP levels after the kinase reaction as described by the manufacturer. Compounds are identified as having inhibitory activity when they reduce PCK zeta activity by at least 50% when tested at a concentration of 100 micromolar.

Compound: CN(C)CCCn1cc(C2=C(c3c[nH]c4ccccc34)C(=O)NC2=O)c2ccccc21 [bisindoylmaleimide I]
effect on VEGF stimulated dextran permeability ([1]; bisindoylmaleimide I 5 micromolar, 30 min before tracer, VEGF 50 ng/mL, BREC): partly reduces VEGF stimulated permeability

Compound: CCOC(=O)c1c(NC(C)=O)sc(/C(C)=N/O)c1-c1ccccc1 [formula (I), ethyl (5E)-2-acetylimino-5-[1-(hydroxyamino)ethylidene]-4-phenyl-thiophene-3-carboxylate]
cell death (ethidium homodimer-1 staining) [2]: no increase in cell death; also recorded: does not alter cell viability or increase cell death | cell viability (calcein AM incorporation) [2]: no loss of cell viability; also recorded: does not alter cell viability | reduction of Evan's blue bound albumin flux ([3]; about 10 micromolar final concentration in the eye): 50% | effect on VEGF induced permeability in vivo ([3]; about 10 micromolar in the eye): blocks VEGF induced permeability in vivo | effect on VEGF induced endothelial permeability in vitro ([1]; PKC-zeta I1 at 10 and 25 micromolar, 30 min before tracer, VEGF 50 ng/mL): completely blocks VEGF induced endothelial permeability; also recorded: effectively blocks VEGF induced permeability in vitro | effect on baseline endothelial permeability ([1]; PKC-zeta I1 at 10 and 25 micromolar, no VEGF): reduces baseline permeability | IC50 [4]: 10 µM

Compound: myr-SIYRRGARRWRKL (Myristoyl-SIYRRGARRWRKL)
effect on VEGF stimulated endothelial permeability to 70 kDa RITC-dextran ([1]; 30 min before tracer, VEGF 50 ng/mL, BREC): reduces and prevents a VEGF stimulated increase in permeability | effect on VEGF stimulated endothelial permeability to 70 kDa RITC-dextran ([1]; 30 min before tracer, VEGF 50 ng/mL, BREC, listed as myristoylated peptide inhibitor of PKC zeta): reduced or prevented permeability | dose dependence of effect on VEGF stimulated endothelial permeability ([1]; peptide inhibitor 6.25, 12.5, 25 and 50 nM, VEGF 50 ng/mL, BREC): reduces VEGF stimulated endothelial permeability in a dose dependent manner

The next lines start with the values.

inhibits PKC zeta with x-fold greater efficacy than the compound of formula (I) [5]: 1.2 fold
Compound: CCOC(=O)c1c(NC(=S)N2CCN(S(C)(=O)=O)CC2)sc(C)c1-c1ccccc1 [formula (III)]

inhibits PKC zeta with x-fold greater efficacy than the compound of formula (I) [5]: 1.8 fold
Compound: CC(C)OC(=O)c1c(-c2ccc(Cl)c(Cl)c2)csc1N [formula (IV)]

inhibits PKC zeta with x-fold greater efficacy than the compound of formula (I) [5]: 2.6 fold
Compound: CCOC(=O)c1c(NC(C)=O)sc(C)c1-c1ccc(OC)cc1 [formula (V)]
